Values of other authors in paper PMC10104807, “Modulation of tau tubulin kinases (TTBK1 and TTBK2) impacts ciliogenesis” (Scientific Reports, 2023).

Columns and labels:
[1] = tested on: 403 wild-type (WT) human kinases; design: method as in PMID 33944571; conditions: 1 μM; cited from earlier work
[2] = design: method as in PMID 34978799; conditions: cited from earlier work
tau phosphorylation = conditions: cited from earlier work

CC[C@](C)(O)C#Cc1cc2c(cn1)cnn2-c1ccnc(N)n1 [BGN18]
number of kinases bound with PoC < 10 in DiscoverX scanMAX panel [1]: sixteen

Clc1ccc(-c2ccc(Nc3ncnc4[nH]ccc34)cc2)cc1 [compound 29]
brain penetration [2]: good brain penetration

CC[C@](C)(O)C#Cc1cc2c(ccn2-c2cc(OC)nc(N)n2)cn1 [BGN31]
tau phosphorylation at multiple disease-relevant sites in vivo (tau phosphorylation): significantly lowered
number of kinases bound with PoC < 10 in DiscoverX scanMAX panel [1]: eight
